Measurements as given in article PMC9078399, “Discovery of N-cyclobutylaminoethoxyisoxazole derivatives as novel sigma-1 receptor ligands with neurite outgrowth efficacy in cells” (RSC Advances, 2018).

How the values were obtained:
σ1 receptor [1] = molecular target: T1, σ1 receptor (Cavia porcellus, UniProt Q60492); experiment: Radioligand binding at σ1 receptor ([3H]-(+)-pentazocine, NIMH PDSP); design: species or system Guinea pig; conditions: ratio of Ki σ2 to Ki σ1
T1 construct: σ1 receptor, [^3H]-(+)-pentazocine, Guinea pig brain homogenate; from tissue; host or cells: Guinea pig brain homogenate
T1 sequence (Q60492 whole entry): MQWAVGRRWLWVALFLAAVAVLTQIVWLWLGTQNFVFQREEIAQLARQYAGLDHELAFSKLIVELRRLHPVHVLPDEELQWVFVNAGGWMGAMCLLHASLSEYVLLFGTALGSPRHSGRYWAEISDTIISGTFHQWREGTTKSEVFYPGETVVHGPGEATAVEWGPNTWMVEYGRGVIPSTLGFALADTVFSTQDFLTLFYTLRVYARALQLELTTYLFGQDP
Excerpt: In this study, [^3H] pentazocine and [^3H]DTG (6) were used as the radioligands at σ1 and σ2 receptors. Firstly, we examined the effects of changing the substituents on the benzene ring. […] Mono-halogen substitution on the benzene ring exemplified by compounds 17–20 generally retained affinity for σ1 receptor compared with compound 7. […] The derivatives 21–25 also maintained similar high affinities for the σ1 receptor upon incorporation of two halogen atoms on the benzene ring. However, this is also accompanied with higher binding affinity to the σ2 receptor. […]. Next, we examined the effects of removing the methyl group on the basic nitrogen atom. […] […]. […] The results for the secondary amines 28 and 29 indicate that the hydrogen bond donor on basic nitrogen atom was beneficial for increased binding affinity to the σ1 receptor.
Radioligand competition studies were carried out by the National Institute of Mental Health's Psychoactive Drug Screening Program, Contract #HHSN-271-2008-00025-C (NIMH PDSP). The general procedures are listed as follows:
All the test compounds solution (1 mg mL^−1) were prepared by dissolving in DMSO or buffer solvent (50 mM Tris–HCl, pH = 8.0). The filter-mats were presoaked in 0.5% aqueous polyethyleneimine solution for 2 h at rt before use. All binding experiments were carried out in poly-L-lysine-coated 96-well plate and the final test concentration (50 μM, 5 μM, 1.5 μM, 500 nM, 150 nM, 50 nM, 15 nM, 5 nM, 1.5 nM, 0.5 nM, 0.05 nM) were prepared by addition of Tris–HCl solution (50 mM, pH = 8.0). The following specific radioligands and tissue source were used: (a) σ1 receptor, [^3H]-(+)-pentazocine, Guinea pig brain homogenate; (b) σ2 receptor, [^3H]-DTG, PC-12 cells. 100 μL of corresponding radioligand solution, 100 μL test compound solution and 50 μL of the respective receptor preparation into each well of the plate (total volume 250 μL). During the incubation, the plates were shaken at a speed of 500–600 rpm at the specified temperature (σ1 receptor, 37 °C, 150 min; σ2 receptor, rt, 120 min). The incubation was followed by a rapid vacuum filtration through Whatman GF/B glass filters, and the filtrates were washed twice with 10 mL of cold buffer and transferred to the 6 mL scintillation vials. EcoScint scintillation fluid (4.0 mL) was added, and the radioactivity bound was measured using a Beckman LS 6500 liquid scintillation counter. All experiments were performed at least three times.
For experimental details please refer to the PDSP website http://pdsp.med.unc.edu/.[28]

[2] = molecular target: SERT: serotonin transporter (Homo sapiens, UniProt P31645); design: method as in PMID 27309376; conditions: [3H] citalopram; literature values; cited from earlier work
Sequence of SERT: serotonin transporter (P31645 whole entry): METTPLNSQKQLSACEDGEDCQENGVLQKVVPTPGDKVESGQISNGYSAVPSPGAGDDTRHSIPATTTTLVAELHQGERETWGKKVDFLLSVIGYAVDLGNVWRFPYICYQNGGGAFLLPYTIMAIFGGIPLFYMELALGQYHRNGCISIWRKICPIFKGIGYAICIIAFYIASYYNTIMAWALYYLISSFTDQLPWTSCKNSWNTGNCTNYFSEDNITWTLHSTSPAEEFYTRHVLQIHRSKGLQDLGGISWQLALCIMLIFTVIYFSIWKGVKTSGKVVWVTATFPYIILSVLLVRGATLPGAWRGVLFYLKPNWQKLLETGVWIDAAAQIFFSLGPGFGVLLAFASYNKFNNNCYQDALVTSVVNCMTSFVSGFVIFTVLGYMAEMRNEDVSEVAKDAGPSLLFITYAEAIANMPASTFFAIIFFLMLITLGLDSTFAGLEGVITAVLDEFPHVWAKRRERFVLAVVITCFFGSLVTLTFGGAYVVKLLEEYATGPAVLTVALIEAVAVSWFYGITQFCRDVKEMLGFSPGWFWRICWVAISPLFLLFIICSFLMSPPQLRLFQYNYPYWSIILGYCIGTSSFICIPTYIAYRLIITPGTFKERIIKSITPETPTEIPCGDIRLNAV

σ1 receptor [3] = molecular target: T1, σ1 receptor; design: method as in PMID 27309376; conditions: [3H]-(+)-pentazocine; Guinea pig homogenate; compound 7 value from the literature; cited from earlier work
PC12 cells = experiment: NGF-induced neurite outgrowth in PC-12 cells; type: cell-based, rat; conditions: 10 μM compound with NGF 2.5 ng mL−1, four days
Procedure: PC-12 cells, from rat pheochromocytoma cell lines, were obtained from the American Type Culture Collection (ATCC, Manassas, VA, USA). Undifferentiated PC12 cells were cultured in DMEM complete medium with 10% heat-inactivated horse serum, 5% fetal bovine serum, 100 U mL^−1 penicillin, and 100 μg mL^−1 streptomycin and maintained at 37 °C in a humidified incubator supplemented with 5% CO2. To induce differentiation, PC12 cells were seeded at a density of 1 × 10^4 cells per mL on a poly-L-lysine-coated 96-well plate and cultured in complete medium containing 2.5 ng mL^−1 NGF or different tested compounds (10 μM) concomitant with 2.5 ng mL^−1 NGF administration. Four days after incubation, morphometric analysis was performed on digitized images of live cells taken under phase contrast illumination with an inverted microscope linked to a camera. Images of five fields per well were taken with an average of 20 cells per field. The number of differentiated cells was determined by counting cells that had at least one neurite with a length equal to the cell body diameter and was expressed as a percentage of the total cells in the field. The counting was performed in a blinded manner. All experiments were performed at least five times.

[4] = molecular target: NET: norepinephrine transporter (Homo sapiens, UniProt P23975); design: method as in PMID 27309376; conditions: [3H] nisoxetine; literature values; cited from earlier work
Sequence of NET: norepinephrine transporter (P23975 whole entry): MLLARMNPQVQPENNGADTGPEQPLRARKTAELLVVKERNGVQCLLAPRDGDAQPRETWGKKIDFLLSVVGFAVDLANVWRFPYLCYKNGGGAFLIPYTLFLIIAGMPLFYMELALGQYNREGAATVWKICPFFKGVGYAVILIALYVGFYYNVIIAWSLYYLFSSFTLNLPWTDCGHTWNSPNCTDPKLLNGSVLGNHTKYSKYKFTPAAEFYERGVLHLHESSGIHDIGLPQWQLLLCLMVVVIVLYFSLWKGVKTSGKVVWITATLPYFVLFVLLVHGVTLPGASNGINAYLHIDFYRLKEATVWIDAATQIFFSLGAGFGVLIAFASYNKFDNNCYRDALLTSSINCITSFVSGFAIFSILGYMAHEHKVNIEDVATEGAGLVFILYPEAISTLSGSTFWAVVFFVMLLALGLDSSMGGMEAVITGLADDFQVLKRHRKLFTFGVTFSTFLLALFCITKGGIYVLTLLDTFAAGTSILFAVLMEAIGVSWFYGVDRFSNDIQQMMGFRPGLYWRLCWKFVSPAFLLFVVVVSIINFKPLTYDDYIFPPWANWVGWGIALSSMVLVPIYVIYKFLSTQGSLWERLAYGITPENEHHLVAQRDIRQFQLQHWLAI

[5] = molecular target: DAT: dopamine transporter (Homo sapiens, UniProt Q01959); design: method as in PMID 27309376; conditions: [3H] WIN35428; literature values; cited from earlier work
Sequence of DAT: dopamine transporter (Q01959 whole entry): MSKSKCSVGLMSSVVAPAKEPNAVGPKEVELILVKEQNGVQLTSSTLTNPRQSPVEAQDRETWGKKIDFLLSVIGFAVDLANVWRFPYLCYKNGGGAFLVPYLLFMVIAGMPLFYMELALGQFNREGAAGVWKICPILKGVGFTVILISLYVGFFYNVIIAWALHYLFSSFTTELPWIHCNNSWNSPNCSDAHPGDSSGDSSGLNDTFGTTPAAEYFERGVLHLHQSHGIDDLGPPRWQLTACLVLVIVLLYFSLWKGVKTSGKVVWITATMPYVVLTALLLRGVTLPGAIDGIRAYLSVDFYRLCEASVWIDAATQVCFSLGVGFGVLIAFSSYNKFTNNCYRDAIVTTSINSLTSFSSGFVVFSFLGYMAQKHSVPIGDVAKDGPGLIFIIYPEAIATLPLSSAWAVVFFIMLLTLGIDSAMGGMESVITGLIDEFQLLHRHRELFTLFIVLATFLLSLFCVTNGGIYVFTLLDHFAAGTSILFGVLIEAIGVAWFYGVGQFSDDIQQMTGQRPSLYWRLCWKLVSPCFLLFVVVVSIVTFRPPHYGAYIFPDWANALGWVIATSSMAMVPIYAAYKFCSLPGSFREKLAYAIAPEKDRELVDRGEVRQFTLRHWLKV

σ2 receptor = molecular target: σ2 receptor; design: method as in PMID 21278085, PMID 15170821, PMID 18647636, PMID 22935988, PMID 21967807; conditions: representative σ1 receptor ligands, Fig. 1; cited from earlier work
σ1 receptor [6] = molecular target: σ1 receptor; design: method as in PMID 21278085, PMID 15170821, PMID 18647636, PMID 22935988, PMID 21967807; conditions: representative σ1 receptor ligands, Fig. 1; cited from earlier work

| Selectivity (Ki σ2/Ki σ1) (σ1 receptor [1]) | Compound | Ki, SERT [2] | Ki (σ1 receptor [3]) | Effect on NGF-induced neurite outgrowth (PC12 cells) | Ki, NET [4] | Ki, DAT [5] | Ki (σ2 receptor) | Ki (σ1 receptor [6]) |
| --- | --- | --- | --- | --- | --- | --- | --- | --- |
| 171 | CN(CCOc1cc(COc2ccccc2)on1)C1CCC1 [Compound 7] | NA (NA: not active, defined as <50% binding in the primary assay at 10 μM) | 1.8 ± 0.2 nM | synergistic neurite outgrowth effects at a level similar to that of the positive control RC-33 | NA (NA: not active, defined as <50% binding in the primary assay at 10 μM) | NA ^c (NA: not active, defined as <50% binding in the primary assay at 10 μM) | – | – |
| – | CC(CCN1CCCCC1)c1ccc(-c2ccccc2)cc1 (stereo not shown) [RC-33] | – | – | – | – | – | 103 nM | 0.7 nM |
| – | COc1ccc(CCN2CCN(CCCc3ccccc3)CC2)cc1OC [SA4503] | – | – | – | – | – | 1800 nM | 17 nM |
